Measured values as given in patent publication US8338594B2, “Pyrrolotriazine derivatives useful for treating cancer through inhibition of aurora kinase” (Bayer HealthCare LLC, priority 2005, dated 2012).

Experiments:
[1] = biological target: T1, murine Aurora Kinase 1 (mAur1) (Mus musculus, UniProt O70126); assay: murine Aurora Kinase 1 (mAur1) biochemical Scintillation Proximity Assay; settings: SPA, biotinylated Peptide 830, 1 μM ATP, 12 nM GST-tagged mAur 1 co-expressed with human INCENP
T1 construct: recombinant, GST-tagged mAur 1 (amino acids 67-345) that was co-expressed with human INCENP; GST; made in house
Protocol: (§1) Using a Scintillation Proximity Assay (SPA) format, the murine Aurora Kinase 1 (mAur1) and murine Aurora Kinase 2 (mAur2) biochemical assay measures the ability of mAur2 to phosphorylate the substrate, biotinylated Peptide 830 (DRT, Protein Sciences). Once radiolabeled by the enzyme, the biotinylated substrate is captured on streptavidin-coated SPA beads and the radioactivity, in proximity to the SPA beads, is measured. For the generation of IC50 curves, the reaction was performed in 96-well isoplates (Wallac 1450-514) under the following conditions: a 10 mM stock solution of compound (in 100% dimethylsulfoxide; DMSO) was diluted 10 fold in 100% DMSO. Compounds were then serially diluted, 1:5, for an eight point dose curve, in 100% DMSO. A volume of 1 μL of the diluted compound was added to the reaction buffer that consisted of 25 mM HEPES pH 7.5, 1 mM MnCl2, 1 mM MgCl2, 1 mM DTT, 0.01% Tween20. A mixture with a final concentration per well of 1 μM cold ATP, 0.1 μCi ^33P-ATP (Amersham AH9968) and 1 μM biotinylated Peptide 830 was then added. The reaction was initiated with the addition of either recombinant, GST-tagged mAur 1 (amino acids 67-345) that was co-expressed with human INCENP (amino acids 704-919) (DRT, Protein Sciences) at a final concentration of 12 nM or N-terminal His-tagged mAur2 (amino acids 98-395; DRT, Protein Sciences) at a final concentration of 20 nM. The final reaction volume in each well was 100 μL and the final compound concentration ranged from 10 μM-[…] in 1% DMSO. The reaction mixture was allowed to incubate for 1-2 hours with gentle agitation at 25° C. To terminate the reaction, streptavidin-coated SPA beads (Amersham RPNQ0007; 50 μL of 0.5 mg beads dissolved in 165 mM EDTA) were then added to each well and incubation proceeded for an additional 15 minutes at 25° C. The plate was then centrifuged for ten minutes at 2000 rpm. Phosphorylation of the peptide substrate was measured using a Wallac 1450 Microbeta Plus Liquid Scintillation Counter.

[2] = biological target: T2, murine Aurora Kinase 2 (mAur2) (Mus musculus, UniProt P97477); assay: murine Aurora Kinase 2 (mAur2) biochemical Scintillation Proximity Assay; settings: SPA, biotinylated Peptide 830, 1 μM ATP, 20 nM His-tagged mAur2
T2 construct: N-terminal His-tagged mAur2 (amino acids 98-395; DRT, Protein Sciences); His (N); made in house
T2 sequence (P97477 98-395): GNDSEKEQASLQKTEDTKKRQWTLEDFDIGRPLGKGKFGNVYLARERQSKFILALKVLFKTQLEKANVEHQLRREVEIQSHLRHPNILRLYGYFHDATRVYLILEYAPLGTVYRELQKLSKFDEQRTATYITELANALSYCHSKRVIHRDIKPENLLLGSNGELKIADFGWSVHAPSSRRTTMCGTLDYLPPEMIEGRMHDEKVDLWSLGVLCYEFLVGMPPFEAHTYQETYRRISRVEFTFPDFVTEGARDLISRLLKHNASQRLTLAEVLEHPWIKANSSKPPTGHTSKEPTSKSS
Protocol: as §1

T1 sequence (O70126 67-345): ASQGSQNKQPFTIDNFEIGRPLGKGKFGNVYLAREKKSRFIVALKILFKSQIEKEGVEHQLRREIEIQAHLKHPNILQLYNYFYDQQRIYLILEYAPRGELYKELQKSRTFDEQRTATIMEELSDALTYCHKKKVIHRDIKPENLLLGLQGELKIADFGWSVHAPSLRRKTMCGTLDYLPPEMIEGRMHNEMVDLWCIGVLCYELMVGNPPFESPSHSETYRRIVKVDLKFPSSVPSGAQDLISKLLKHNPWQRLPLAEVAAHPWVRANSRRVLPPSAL
T1 sequence (Q9NQS7 704-918 partner): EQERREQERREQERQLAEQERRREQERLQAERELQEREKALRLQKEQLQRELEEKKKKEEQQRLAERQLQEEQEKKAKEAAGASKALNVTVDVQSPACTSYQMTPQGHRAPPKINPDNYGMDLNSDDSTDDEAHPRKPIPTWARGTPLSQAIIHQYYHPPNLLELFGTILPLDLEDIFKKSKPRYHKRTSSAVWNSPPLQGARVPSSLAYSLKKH

SMILES	IC50 [1] [nM]	IC50 [2] [nM]
Nc1ncnn2cc(C(=O)N3CCCC3)c(-c3ccc(Nc4nc5cc(F)cc(F)c5[nH]4)cc3)c12 [Example 96, 5-{4-[(5,7-difluoro-1H-benzimidazol-2-yl)amino]phenyl}-6-(pyrrolidin-1-ylcarbonyl)pyrrolo[2,1-f][1,2,4]triazin-4-amine]	< 100	< 100
Nc1ncnn2cc(C(=O)O)c(-c3ccc(Nc4nc5ccc(Oc6ccccc6)c(F)c5[nH]4)cc3)c12 [Example 101, 4-amino-5-{4-[(7-fluoro-6-phenoxy-1H-benzimidazol-2-yl)amino]phenyl}pyrrolo[2,1-f][1,2,4]triazine-6-carboxylic acid]	< 100	< 100
Nc1ncnn2cc(C(=O)NC3CC3)c(-c3ccc(Nc4nc5ccc(Oc6ccccc6)c(F)c5[nH]4)cc3)c12 [Example 105, 4-amino-N-cyclopropyl-5-{4-[(7-fluoro-6-phenoxy-1H-benzimidazol-2-yl)amino]phenyl}pyrrolo[2,1-f][1,2,4]triazine-6-carboxamide]	< 100	< 100
CCN(C)C(=O)c1cn2ncnc(N)c2c1-c1ccc(Nc2nc3ccc(Oc4ccccc4)c(F)c3[nH]2)cc1 [Example 106, 4-amino-N-ethyl-5-{4-[(7-fluoro-6-phenoxy-1H-benzimidazol-2-yl)amino]phenyl}-N-methylpyrrolo[2,1-f][1,2,4]triazine-6-carboxamide]	< 100	< 100
Nc1ncnn2cc(C(=O)N3CCCCC3)c(-c3ccc(Nc4nc5ccc(Oc6ccccc6)c(F)c5[nH]4)cc3)c12 [Example 107, 5-{4-[(7-fluoro-6-phenoxy-1H-benzimidazol-2-yl)amino]phenyl}-6-(piperidin-1-ylcarbonyl)pyrrolo[2,1-f][1,2,4]triazin-4-amine]	< 100	< 100
Nc1ncnn2cc(C(=O)N3CCOCC3)c(-c3ccc(Nc4nc5ccc(Oc6ccccc6)c(F)c5[nH]4)cc3)c12 [Example 108, 5-{4-[(7-fluoro-6-phenoxy-1H-benzimidazol-2-yl)amino]phenyl}-6-(morpholin-4-ylcarbonyl)pyrrolo[2,1-f][1,2,4]triazin-4-amine]	< 100	< 100
COCCNC(=O)c1cn2ncnc(N)c2c1-c1ccc(Nc2nc3ccc(Oc4ccccc4)c(F)c3[nH]2)cc1 [Example 110, 4-amino-5-{4-[(7-fluoro-6-phenoxy-1H-benzimidazol-2-yl)amino]phenyl}-N-(2-methoxyethyl)pyrrolo[2,1-f][1,2,4]triazine-6-carboxamide]	< 100	< 100
CC(C)CNC(=O)c1cn2ncnc(N)c2c1-c1ccc(Nc2nc3ccc(Oc4ccccc4)c(F)c3[nH]2)cc1 [Example 111, 4-amino-5-{4-[(7-fluoro-6-phenoxy-1H-benzimidazol-2-yl)-amino]phenyl}-N-isobutylpyrrolo[2,1-f][1,2,4]triazine-6-carboxamide]	< 100	< 100
Nc1ncnn2cc(C(=O)NC3CCCC3)c(-c3ccc(Nc4nc5ccc(Oc6ccccc6)c(F)c5[nH]4)cc3)c12 [Example 112, 4-amino-N-cyclopentyl-5-{4-[(7-fluoro-6-phenoxy-1H-benzimidazol-2-yl)amino]phenyl}pyrrolo[2,1-f][1,2,4]triazine-6-carboxamide]	< 100	< 100
Nc1ncnn2cc(C(=O)N3CCCC3)c(-c3ccc(Nc4nc5ccc(Oc6ccccc6)c(F)c5[nH]4)cc3)c12 [Example 113, 5-{4-[(7-fluoro-6-phenoxy-1H-benzimidazol-2-yl)amino]phenyl}-6-(pyrrolidin-1-ylcarbonyl)pyrrolo[2,1-f][1,2,4]triazin-4-amine]	< 100	< 100
Cc1ccc(-c2ccc3nc(Nc4ccc(-c5c(C(=O)NCC(F)(F)F)cn6ncnc(N)c56)cc4)[nH]c3n2)cc1 [Example 115, 4-amino-5-(4-{[5-(4-methylphenyl)-3H-imidazo[4,5-b]pyridin-2-yl]amino}phenyl)-N-(2,2,2-trifluoroethyl)pyrrolo[2,1-f][1,2,4]triazine-6-carboxamide]	< 100	< 100

Results, then the compound that gave them:

IC50 [1] [nM]	IC50 [2] [nM]	SMILES
< 100	< 100	CN(C)C(=O)c1cn2ncnc(N)c2c1-c1ccc(Nc2nc3cc(F)cc(F)c3[nH]2)cc1 [Example 74, 4-amino-5-{4-[(5,7-difluoro-1H-benzimidazol-2-yl)amino]phenyl}-N,N-dimethylpyrrolo[2,1-f][1,2,4]triazine-6-carboxamide]
< 100	< 100	COCCNC(=O)c1cn2ncnc(N)c2c1-c1ccc(Nc2nc3cc(F)cc(F)c3[nH]2)cc1 [Example 75, 4-amino-5-{4-[(5,7-difluoro-1H-benzimidazol-2-yl)amino]phenyl}-N-(2-methoxyethyl)pyrrolo[2,1-f][1,2,4]triazine-6-carboxamide]
< 100	< 100	Nc1ncnn2cc(C(=O)N3CCOCC3)c(-c3ccc(Nc4nc5cc(F)cc(F)c5[nH]4)cc3)c12 [Example 76, 5-{4-[(5,7-difluoro-1H-benzimidazol-2-yl)amino]phenyl}-6-(morpholin-4-ylcarbonyl)pyrrolo[2,1-f][1,2,4]triazin-4-amine]
< 100	< 100	Nc1ncnn2cc(C(=O)NCC3CC3)c(-c3ccc(Nc4nc5cc(F)cc(F)c5[nH]4)cc3)c12 [Example 80, 4-amino-N-(cyclopropylmethyl)-5-{4-[(5,7-difluoro-1H-benzimidazol-2-yl)amino]phenyl}pyrrolo[2,1-f][1,2,4]triazine-6-carboxamide]
< 100	< 100	NC(=O)C1CCN(C(=O)c2cn3ncnc(N)c3c2-c2ccc(Nc3nc4cc(F)cc(F)c4[nH]3)cc2)CC1 [Example 81, 1-[(4-amino-5-{4-[(5,7-difluoro-1H-benzimidazol-2-yl)amino]phenyl}pyrrolo[2,1-f][1,2,4]triazin-6-yl)carbonyl]piperidine-4-carboxamide]
< 100	< 100	Nc1ncnn2cc(C(=O)NC3CCCC3)c(-c3ccc(Nc4nc5cc(F)cc(F)c5[nH]4)cc3)c12 [Example 85, 4-amino-N-cyclopentyl-5-{4-[(5,7-difluoro-1H-benzimidazol-2-yl)amino]phenyl}pyrrolo[2,1-f][1,2,4]triazine-6-carboxamide]
< 100	< 100	CCN(C)C(=O)c1cn2ncnc(N)c2c1-c1ccc(Nc2nc3cc(F)cc(F)c3[nH]2)cc1 [Example 89, 4-amino-5-{4-[(5,7-difluoro-1H-benzimidazol-2-yl)amino]phenyl}-N-ethyl-N-methylpyrrolo[2,1-f][1,2,4]triazine-6-carboxamide]
< 100	< 100	CCN(C(=O)c1cn2ncnc(N)c2c1-c1ccc(Nc2nc3cc(F)cc(F)c3[nH]2)cc1)C(C)C [Example 90, 4-amino-5-{4-[(5,7-difluoro-1H-benzimidazol-2-yl)amino]phenyl}-N-ethyl-N-isopropylpyrrolo[2,1-f][1,2,4]triazine-6-carboxamide]
< 100	< 100	COCC1CCCN1C(=O)c1cn2ncnc(N)c2c1-c1ccc(Nc2nc3cc(F)cc(F)c3[nH]2)cc1 (centres unmarked) [Example 91, 5-{4-[(5,7-difluoro-1H-benzimidazol-2-yl)amino]phenyl}-6-{[2-(methoxymethyl)pyrrolidin-1-yl]carbonyl}pyrrolo[2,1-f][1,2,4]triazin-4-amine]
< 100	< 100	CC(C)N(C)C(=O)c1cn2ncnc(N)c2c1-c1ccc(Nc2nc3cc(F)cc(F)c3[nH]2)cc1 [Example 92, 4-amino-5-{4-[(5,7-difluoro-1H-benzimidazol-2-yl)amino]phenyl}-N-isopropyl-N-methylpyrrolo[2,1-f][1,2,4]triazine-6-carboxamide]
< 100	< 100	CCCN(C)C(=O)c1cn2ncnc(N)c2c1-c1ccc(Nc2nc3cc(F)cc(F)c3[nH]2)cc1 [Example 93, 4-amino-5-{4-[(5,7-difluoro-1H-benzimidazol-2-yl)amino]phenyl}-N-methyl-N-propylpyrrolo[2,1-f][1,2,4]triazine-6-carboxamide]
